Reference: patent US20240368151A1, “NOVEL ERGOLINES AND METHODS OF TREATING MOOD DISORDERS” (priority 2021, published 2024)

Tests used:
5-HT2A receptor = 5-HT2A receptor (Homo sapiens (Human), UniProt P28223); format: cell-based; details: for 5-HT2A % Act @ Max Dose: Ca^2+ flux, HEK293
Summary of the method: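 Agonist-induced calcium flux was measured on FLIPR Tetra in stable HEK293 cells for 5-HT2A and 5-HT2B, and in stable CHO cells for 5-HT1A. Cells were loaded with Fluo-4 Direct dye and 2.5 mM probenecid for 50 min at 37 °C before compound addition and fluorescence reading.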

5-HT1A receptor = 5-HT1A receptor (Homo sapiens (Human), UniProt P08908); assay: FLIPR Ca^2+ flux agonist assay at 5-HT1A; format: cell-based; details: CHO cells
5-HT1B receptor = 5-HT1B receptor (Homo sapiens (Human), UniProt P28222); assay: cAMP accumulation agonist assay at 5-HT1B; format: cell-based
Chain of 5-HT1B receptor (P28222 whole entry, looked up): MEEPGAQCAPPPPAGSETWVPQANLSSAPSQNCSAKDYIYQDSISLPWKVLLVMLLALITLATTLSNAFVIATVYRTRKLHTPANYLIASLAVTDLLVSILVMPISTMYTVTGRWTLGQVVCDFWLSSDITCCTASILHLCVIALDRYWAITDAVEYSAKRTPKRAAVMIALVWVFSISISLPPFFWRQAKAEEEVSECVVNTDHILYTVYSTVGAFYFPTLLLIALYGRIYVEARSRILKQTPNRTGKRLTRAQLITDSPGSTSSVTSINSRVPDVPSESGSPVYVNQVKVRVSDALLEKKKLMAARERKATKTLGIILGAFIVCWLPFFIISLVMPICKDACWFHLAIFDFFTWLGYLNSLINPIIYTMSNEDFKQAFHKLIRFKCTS
Protocol: Functional Assay at 5-HT1B. Agonist activity at 5-HT1B was determined using a cAMP accumulation protocol at WuXi AppTec (Hong Kong) Limited according to their standard protocols. Briefly, stably transfected cells were plated in an OptiPlate-384 well plate, incubated at RT for 60 mins, and cAMP standard solution (800 nM, 10 μL) was added to the blank well. Then, 10 μL detection reagent was added to each well, the plate incubated for 60 mins at RT, and the plate read using EnVision.

Alpha2A receptor = Alpha2A receptor (Homo sapiens (Human), UniProt P08913); assay: FLIPR Ca^2+ flux agonist assay at Alpha2A; format: cell-based
Chain of Alpha2A receptor (P08913 whole entry, looked up): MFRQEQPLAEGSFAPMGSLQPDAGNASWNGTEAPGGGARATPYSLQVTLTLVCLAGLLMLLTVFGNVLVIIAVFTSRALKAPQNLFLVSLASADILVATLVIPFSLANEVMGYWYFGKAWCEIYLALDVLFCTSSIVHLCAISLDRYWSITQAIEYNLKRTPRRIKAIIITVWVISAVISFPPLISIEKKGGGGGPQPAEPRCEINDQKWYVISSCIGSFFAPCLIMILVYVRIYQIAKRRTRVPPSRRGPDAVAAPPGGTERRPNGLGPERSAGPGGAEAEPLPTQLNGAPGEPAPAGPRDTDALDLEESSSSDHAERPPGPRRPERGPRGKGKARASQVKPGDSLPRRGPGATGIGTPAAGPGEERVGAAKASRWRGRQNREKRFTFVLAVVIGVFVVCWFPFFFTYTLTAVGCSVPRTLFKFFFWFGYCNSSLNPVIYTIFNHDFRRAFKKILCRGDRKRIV
Protocol: (§1) Functional Assays at Adrenergic and Dopamine Receptors. Agonist activity at Alpha1A, Alpha2A, D1, and D2 receptors was determined using a FLIPR Ca^2+ flux assay at WuXi AppTec (Hong Kong) Limited according to their standard protocols. Briefly, stably transfected cells expressing the receptor of interest were grown and plated in a 384 well plate and incubated at 37° C. and 5% CO2 overnight. A solution of 250 mM probenecid in 1 mL FLIPR assay buffer was prepared fresh. This was combined with a fluorescent dye (Fluo-4 Direct™) to make a final assay concentration of 2.5 mM. […] The fluorescent dye was then added to the assay plate along with assay buffer to a final volume of 40 μL. The cell plate was incubated for 50 min at 37° C. and 5% CO2 and placed into the FLIPR Tetra along with the compound plate. 10 μL of references and compounds were then transferred from the compound plate into the cell plate and the fluorescent signal was read.

D1 receptor = D1 receptor (Homo sapiens (Human), UniProt P21728); assay: FLIPR Ca^2+ flux agonist assay at D1; format: cell-based
Chain of D1 receptor (P21728 whole entry, looked up): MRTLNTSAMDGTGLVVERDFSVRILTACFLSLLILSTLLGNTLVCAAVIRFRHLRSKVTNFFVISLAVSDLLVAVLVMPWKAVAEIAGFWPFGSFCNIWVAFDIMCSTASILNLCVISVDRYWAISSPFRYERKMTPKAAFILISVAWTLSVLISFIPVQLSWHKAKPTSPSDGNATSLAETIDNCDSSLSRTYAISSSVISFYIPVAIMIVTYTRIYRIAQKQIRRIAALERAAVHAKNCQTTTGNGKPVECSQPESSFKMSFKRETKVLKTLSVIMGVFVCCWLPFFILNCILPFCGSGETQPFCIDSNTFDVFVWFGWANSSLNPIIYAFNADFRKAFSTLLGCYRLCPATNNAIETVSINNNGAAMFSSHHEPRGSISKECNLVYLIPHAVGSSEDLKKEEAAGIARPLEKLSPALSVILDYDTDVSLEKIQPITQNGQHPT
Protocol: as §1

[1] = Metabolic stability in human liver microsomes (HLM); format: in vitro ADME; details: both sexes, human, pooled human liver microsomes, pH 7.4, NADPH
From the text: HLM Stability. Pooled HLM from adult male and female donors (Corning 452117) were used.

[2] = Metabolic stability in mouse liver microsomes (MLM); format: in vitro ADME; details: mouse, pooled mouse liver microsomes, pH 7.4, MLM (CD-1), NADPH
From the text: MLM Stability Pooled MLM from CD-1 mice (BIOIVT M00501) were used.

Sprague Dawley rats = assay: Forced swim test (FST) in rats; format: in vivo, rat; details: for Time Immobile / efficacy in FST relative to positive control desipramine, in words: rat FST; for Time Immobile: 23.5 hours after a single dose; for efficacy in FST relative to positive control desipramine, in words: 0.032 mg/kg
Protocol: Compound 1 induced antidepressant-like effects in the forced swim test (FST) in rats with a 23.5-h pre-treatment time (FIG. 2).
Animals. Male Sprague Dawley rats, aged 9-10 weeks, were used in this experiment. Animals were housed in groups of 2 under controlled temperature (22±3° C.) and relative humidity (30-70%) conditions, with 12-hour light/dark cycles, and with ad libitum food and water. This study was carried out in strict accordance with the requirements of the Committee for the Purpose of Control and Supervision of Experiments on Animals (CPCSEA), India. All efforts were made to minimize suffering.
Drugs and Drug Administration. Compound 1 was synthesized as described above. Desipramine HCl was commercially obtained. The test compound, saline vehicle, and the positive control desipramine were administered subcutaneously (SC), with doses calculated based on the freebase. Normal saline was used as the vehicle. All compounds were administered at a volume of 5 mL/kg. The test compound and vehicle were administered 0.5 h after the start of the training swim (Swim 1) and 23.5 h before the test swim (Swim 2). Desipramine was administered 3 times, at 23.5 h, 5 h, and 1 h before the test swim (Swim 2), each time at a dose of 20 mg/kg. Group size was n=10 per treatment.
Forced Swim Test (FST). […] Rats were handled for about 2 min daily for the 5 days prior to the beginning of the experimental procedure. On the first day of the experiment (i.e., Day 0), post randomization, training swim sessions (Swim 1) were conducted between 12:00 and 18:00 h with all animals by placing rats in individual glass cylinders (46 cm tall×20 cm in diameter) containing 23-25° C. water 30 cm deep for 15 minutes. At the conclusion of Swim 1, animals were dried with paper towels, placed in heated drying cages for 15 minutes, and then returned to their home cages. Animals were then administered the appropriate drug or vehicle treatment(s), as described above. For clarity, a compound administration time of 23.5 h before Swim 2 means 0.5 h after the start of Swim 1 and 0.25 h after the completion of Swim 1 (i.e., immediately after return to the home cage). On Day 1 (i.e., 24 h after start of Swim 1), animals performed the test swim (Swim 2) for a period of 5 min but otherwise under the same conditions as Swim 1. During all swim sessions, the water was changed between each animal.
Behavioral scoring was conducted by observers who were blind to the treatment groups. Animals were continuously observed during Swim 2 and the total time spent engaging in the following behaviors was recorded: immobile, swimming, and climbing. A rat was judged to be immobile when it remained floating in the water without struggling and was making only those movements necessary to keep its head above water. A rat was judged to be swimming when it made active swimming motions, more than necessary to merely maintain its head above water (e.g., moving around in the cylinder). A rat was judged to be climbing when it made active movements with its forepaws in and out of the water, usually directed against the walls.
Statistical Analysis. The data points shown represent the mean±standard error of the mean (SEM). Analysis was performed using GraphPad Prism 6. Comparisons between groups were performed using the one-way analysis of variance (ANOVA), followed by Dunnett's test for comparisons to vehicle.
Additional disclosed compounds were tested in the forced swim test (FST) in rats according to the procedure described in Example 35.

SMILES | 5-HT2A % Act @ Max Dose (5-HT2A receptor) | 5-HT1A % Act @ Max Dose (5-HT1A receptor) | 5-HT1B % Act @ Max Dose (5-HT1B receptor) | Alpha 2A % Act @ Max Dose (Alpha2A receptor) | agonist efficacy at Alpha2A, in words (Alpha2A receptor) | D1 % Act @ Max Dose (D1 receptor) | half-life at 1 μM [1] | half-life at 1 μM [2] | Time Immobile (Sprague Dawley rats; 0.032 mg/kg SC) | Time Immobile (Sprague Dawley rats; 0.32 mg/kg SC) | immobility time relative to vehicle control, in words (Sprague Dawley rats; rats, SC, 23.5 hours after a single administration) | efficacy in FST relative to positive control desipramine, in words (Sprague Dawley rats; SC) | Time Immobile (Sprague Dawley rats; 0.01 mg/kg SC) | selectivity for the 5-HT2A receptor over the tested adrenergic and dopamine receptors, in words (5-HT2A receptor; vs Alpha1A, Alpha2A, D1, D2)
CCN(CC)C(=O)[C@@H]1C=C2c3cccc4[nH]cc(c34)C[C@H]2N(Cc2ccccc2OC)C1 [Compound 10, (6aR,9R)-N,N-diethyl-7-(2-methoxybenzyl)-4,6,6a,7,8,9-hexahydroindolo[4,3-fg]quinoline-9-carboxamide] | 49.44% | 52.96% | 87.29% | 36.52% | very low efficacy agonists | 114.19% | 7.3 min | 1 min | – | – | – | – | – | –
CCN(CC)C(=O)[C@@H]1C=C2c3cccc4[nH]cc(c34)C[C@H]2N(CCc2ccccc2OC)C1 [Compound 11, (6aR,9R)-N,N-diethyl-7-(2-methoxyphenethyl)-4,6,6a,7,8,9-hexahydroindolo[4,3-fg]quinoline-9-carboxamide] | 63.46% | 57.91% | 47.01% | 14.18% | very low efficacy agonists | 90.9% | 2.37 min | 0.917 min | – | – | – | – | – | –
CCCN1C[C@H](C(=O)N(CC)CC)C=C2c3cccc4[nH]cc(c34)C[C@H]21 [Compound 1, (6aR,9R)-N,N-diethyl-7-propyl-4,6,6a,7,8,9-hexahydroindolo[4,3-fg]quinoline-9-carboxamide] | 96.96% | 95.6% | 96.6% | 58.3% | – | 108.68% | 15.1 min | 2.3 min | 161.6 s | 68.2 s | reduced immobility time | – | – | –
CCN(CC)C(=O)[C@@H]1C=C2c3cccc4[nH]cc(c34)C[C@H]2N(CCCF)C1 [Compound 2, (6aR,9R)-N,N-diethyl-7-(3-fluoropropyl)-4,6,6a,7,8,9-hexahydroindolo[4,3-fg]quinoline-9-carboxamide] | 97.75% | 92.42% | 89.97% | 64.96% | – | 113.6% | 19.1 min | 2.67 min | 76.44 s | 41.33 s | – | as efficacious as the positive control desipramine | – | –
CCCN1C[C@H](C(=O)NC(CC)CC)C=C2c3cccc4[nH]cc(c34)C[C@H]21 [Compound 6, (6aR,9R)-N-(pentan-3-yl)-7-propyl-4,6,6a,7,8,9-hexahydroindolo[4,3-fg]quinoline-9-carboxamide] | 94.64% | 101.82% | 94.62% | – | – | 93.13% | 1.61 min | 0.6 min | 93.6 s | 76.6 s | – | – | – | –
CCCN1C[C@H](C(=O)N2[C@@H](C)C[C@@H]2C)C=C2c3cccc4[nH]cc(c34)C[C@H]21 [Compound 4, ((2S,4S)-2,4-dimethylazetidin-1-yl)((6aR,9R)-7-propyl-4,6,6a,7,8,9-hexahydroindolo[4,3-fg]quinolin-9-yl)methanone] | 97.6% | 123.1% | 96% | 102.86% | – | 113.6% | 10.6 min | 0.8 min | 68.89 s | 117.9 s | – | as efficacious as the positive control desipramine | 110.4 s | –
CCCN1C[C@H](C(=O)N[C@H](C)CC)C=C2c3cccc4[nH]cc(c34)C[C@H]21 [Compound 3, (6aR,9R)-N-((R)-sec-butyl)-7-propyl-4,6,6a,7,8,9-hexahydroindolo[4,3-fg]quinoline-9-carboxamide] | 102.64% | 107.6% | 98.66% | 96.82% | – | 121.3% | 4.2 min | 1.6 min | 137.5 s | 50.4 s | – | – | – | exceptional selectivity
